According to US12329799B2, “Peptidyl inhibitors of calcineurin-NFAT interaction” (Ohio State Innovation Foundation, priority 2018, dated 2025):
pKd: −log10 of the molar value. Like-named read-outs stand apart in the source and are kept apart here. Positions of bridges follow the written chain, without caps; N, C: chain ends. Non-standard residues stand in square brackets, D forms with d. Residues, ends and D or L forms follow the SMILES beside them. Chains are numbered I, II in the order given. *: point of attachment. FITC = O=C1OC2(c3ccc(O)cc3Oc3cc(O)ccc32)c2ccc(NC(=S)*)cc21; Benzoyl(2,3,4,5,6-F5) = O=C(c1c(F)c(F)c(F)c(F)c1F)*; Benzoyl(2,3-Cl2) = O=C(c1cccc(Cl)c1Cl)*; Phe(4-F) = N[C@@H](Cc1ccc(F)cc1)C(=O)O; 2Nal = N[C@@H](Cc1ccc2ccccc2c1)C(=O)O; Val(3-OH) = CC(C)(O)[C@H](N)C(=O)O; X4 = O=C(c1cc(F)c(F)c(F)c1F)*; Chg = N[C@H](C(=O)O)C1CCCCC1; Tle = CC(C)(C)[C@H](N)C(=O)O; X6 = O=C(c1ccc(Br)c(Cl)c1)*; X5 = Cc1ccc(C(=O)*)c(F)c1F; X1 = O=C(c1ccnc(Cl)c1Cl)*; AEEA = NCCOCCOCC(=O)O; βAla = NCCC(=O)O

Key:
[1] = target: T1, Calcineurin (GST-CN) (Homo sapiens, UniProt Q08209); experiment: Direct binding of FITC-labeled peptides to CN by fluorescence anisotropy/polarization; conditions: for pKd / Kd: Table 5, acyl-ZIZITGPHEEYK(FITC)-NH2 peptides, FA; for pKd: read-out: KD; for Kd: KD (nM)
T1 construct: made in house; host or cells: E. coli BL21
T1 sequence (Q08209 2-347 limits assumed): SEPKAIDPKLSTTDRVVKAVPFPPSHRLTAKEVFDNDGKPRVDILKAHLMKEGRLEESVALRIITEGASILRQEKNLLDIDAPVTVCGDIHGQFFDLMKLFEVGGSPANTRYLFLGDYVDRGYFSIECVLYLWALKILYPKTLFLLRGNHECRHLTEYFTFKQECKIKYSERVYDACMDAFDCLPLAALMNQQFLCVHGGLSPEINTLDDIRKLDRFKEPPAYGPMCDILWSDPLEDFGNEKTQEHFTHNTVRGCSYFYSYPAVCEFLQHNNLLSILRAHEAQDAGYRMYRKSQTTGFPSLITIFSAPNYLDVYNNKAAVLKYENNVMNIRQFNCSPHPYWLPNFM
Protocol: To facilitate concentration determination and binding analysis by fluorescence anisotropy (FA), a dipeptide Tyr-Lys was added to the C-terminus of ZIZIT (SEQ ID NO:1) and the lysine side chain was labeled with fluorescein isothiocyanate (FITC). The resulting peptide,
Fluorescence Polarization. Fluorescence polarization (FP) experiments were carried out to measure binding affinity in both direct and competitive binding experiments using GST-CN and peptides prepared as mentioned previously. For direct binding, 50 nM FITC-labeled peptide was prepared in PBS, pH 7.4 containing 5 mM DTT and 0.01% Triton-X100 and then added to GST-CN diluted in PBS containing 0.01% Triton-X100. Solutions were incubated for 1 h at RT with gentle mixing and then pipetted into black 384-well microplates. Fluorescence polarization was measured on a TECAN Infinite M1000 plate reader and titration curves were fitted using both KaelidaGraph v 3.6 and GraphPad PRISM to the equation:
[formula] • where FP is the measured fluorescence polarization, Amin is the minimum FP value, Amax is the maximum FP signal, Qb is the quantum yield of the bound fluorophore, Qf is the quantum yield of the free fluorophore, L is the ligand concentration, KD is the dissociation constant and x is the protein concentration.

[2] = test system: Caco-2 cell monolayers; experiment: Caco-2 permeability assay; format: in vitro ADME
Protocol: Caco-2 permeability assay. To assay the permeability of test compounds by Caco-2 cell model, Caco-2 cells were cultured to confluency before being trypsinized and seeded onto filter transwell inserts at a density of 30,000 cells/well in DMEM medium. Cells were cultured in a humidified atmosphere with 5% CO2 at 37° C. After overnight attachment, cell medium was replaced with fresh medium at both apical and basolateral sides every other day. The cell monolayers are ready for the assay 20 days post seeding. […] The dosing solution at 10 μM was obtained by diluting 10 mM stock solution in HBSS medium (pH 7.4, 25 mM HEPES) freshly before the assay. Terfenadine (25 ng/mL) and Tolbutamide (50 ng/mL) were added into dosing solution as internal standards. […] The culture medium from either the basolateral side (plate B) or apical side (plate A) were aspirated and then rinsed with HBSS medium once. Afterwards, the dosing medium was added to either basolateral or apical side. Following the incubation, 100 microliter samples from both sides were harvested at time 0 and time 90 min. Samples were quenched with acetonitrile/methanol (1:1 v/v), centrifuged, and analyzed on a Shimadzu reversed-phase HPLC and Sciex API4500 Q trap instrument.
Permeability parameters were calculated using the following equations and shown in Table 10: Papp=(Conc.receiver,90 min*Volumereceiver)/(Time*Membrane Area*Conc.donor,0 min) Efflux Ratio=Papp[B to A]/Papp[A to B]

[3] = Aqueous solubility (turbidity at 780 nm); format: physicochemical
Protocol: The peptide was serially diluted from a DMSO stock into PBS (pH 7.4) containing 5% DMSO and the optical density of the resulting solutions were measured at 780 nm.
Solubility. Peptides were diluted from a DMSO stock into PBS, pH 7.4 and then serially diluted in identical buffer to standardize DMSO concentration in clear, 96-well plates. The solutions were allowed to stand for 1 h at RT without mixing and then turbidity was measured at 780 nm using a Tecan Infinite M1000 plate reader.

[4] = Serum stability assay; format: in vitro ADME; conditions: 37° C.
Protocol: Serum Stability Assay. Diluted human serum (25%) (H4522 human serum, Sigma) was centrifuged at 15,000 rpm for 10 min, and the supernatant was collected. A peptide stock solution was diluted into the supernatant to a final concentration of 5 μM and incubated at 37° C. At various time points (0-24 h), 200-μL aliquots were withdrawn and mixed with 100 μL of 15% trichloroacetic acid and incubated at 4° C. overnight. The final mixture was centrifuged at 15,000 rpm for 10 min in a microcentrifuge, and the supernatant was analyzed by reversed-phase HPLC equipped with a C18 column. The amount of remaining peptide (%) was determined by integrating the area underneath the peptide peak (monitored at 214 nm) and comparing with that from the peptide at time 0.

Compound: CC[C@H](C)[C@H](NC(=O)[C@@H](NC(=O)c1ccc(Br)c(Cl)c1)C(C)(C)C)C(=O)N[C@H](C(=O)N[C@H](C(=O)N[C@H](C(=O)NCC(=O)N1CCC[C@H]1C(=O)N[C@@H](Cc1c[nH]cn1)C(=O)N[C@@H](CCC(=O)O)C(=O)N[C@@H](CCC(=O)O)C(=O)N[C@@H](Cc1ccc(O)cc1)C(=O)N[C@@H](CCCCNC(=S)Nc1ccc2c(c1)C(=O)OC21c2ccc(O)cc2Oc2cc(O)ccc21)C(N)=O)[C@@H](C)O)[C@@H](C)CC)C(C)(C)C [Peptide 10] (X6-[Tle]I[Tle]ITGPHEEYK(FITC)-NH2)
- pKd [1]: 6.72 to 7.49

Compound: CC(C)CN(C[C@@H](O)[C@H](Cc1ccccc1)NC(=O)O[C@H]1CCOC1)S(=O)(=O)c1ccc(N)cc1 [Amprenavir, reference compound]
- Pgp Substrate [2]: Yes

Compound: CC[C@H](C)[C@H](NC(=O)[C@@H](NC(=O)c1c(F)c(F)c(F)c(F)c1F)C(C)(C)C)C(=O)N[C@H](C(=O)N[C@H](C(=O)N[C@H](C(=O)NCC(=O)N1CCC[C@H]1C(=O)N[C@@H](Cc1c[nH]cn1)C(=O)N[C@@H](CCC(=O)O)C(=O)N[C@@H](CCC(=O)O)C(=O)N[C@@H](Cc1ccc(O)cc1)C(=O)N[C@@H](CCCCNC(=S)Nc1ccc2c(c1)C(=O)OC21c2ccc(O)cc2Oc2cc(O)ccc21)C(N)=O)[C@@H](C)O)[C@@H](C)CC)C(C)(C)C [Peptide 11] ({Benzoyl(2,3,4,5,6-F5)}-[Tle]I[Tle]ITGPHEEYK(FITC)-NH2)
- pKd [1]: 6.72 to 7.49

Compound: CC[C@H](C)[C@H](NC(=O)[C@@H](NC(=O)c1cccc(Cl)c1Cl)C(C)(C)C)C(=O)N[C@H](C(=O)N[C@H](C(=O)N[C@H](C(=O)NCCOCCOCC(=O)N[C@@H](CCCCNC(=S)Nc1ccc2c(c1)C(=O)OC21c2ccc(O)cc2Oc2cc(O)ccc21)C(N)=O)[C@@H](C)O)[C@@H](C)CC)C(C)(C)C [Peptide 12, Dcb-ZIZIT-miniPEG-Lys (FITC)] ({Benzoyl(2,3-Cl2)}-[Tle]I[Tle]IT[AEEA]K(FITC)-NH2; C-terminus assumed)
- decrease in binding affinity on removal of C-terminal pentapeptide (GPHEE) ([1]; peptide 12 versus peptide 9): 17 fold

Compound: CC[C@H](C)[C@H](NC(=O)[C@@H](NC(=O)c1cccc(Cl)c1Cl)C(C)(C)C)C(=O)N[C@H](C(=O)N[C@H](C(=O)N[C@H](C(=O)N[C@@H](Cc1ccc(O)cc1)C(=O)N[C@H](CCC(=O)O)C(=O)N[C@@H](Cc1ccc(F)cc1)C(=O)NCC(=O)NCCC(=O)N[C@@H](CCCCNC(=S)Nc1ccc2c(c1)C(=O)OC21c2ccc(O)cc2Oc2cc(O)ccc21)C(N)=O)[C@@H](C)O)[C@@H](C)CC)C(C)(C)C [Peptide 13, Dcb-ZIZIT-Tyr-glu-Fpa-Gly-βAla-Lys (FITC)] ({Benzoyl(2,3-Cl2)}-[Tle]I[Tle]ITY[dE][Phe(4-F)]G[βAla]K(FITC)-NH2; C-terminus assumed)
- aqueous solubility (qualitative) [3]: good aqueous solubility

Compound: CC[C@H](C)[C@H](NC(=O)[C@@H](NC(=O)[C@@H](NC(=O)[C@@H](NC(=O)c1ccnc(Cl)c1Cl)C(C)(C)C)C1CCCCC1)C(C)(C)O)C(=O)N[C@H](C(=O)N[C@@H](CCC(N)=O)C(=O)N[C@@H](Cc1c[nH]cn1)C(=O)N[C@H](CC(C)C)C(=O)N[C@@H](CO)C(=O)NCCC(=O)N[C@@H](CCCCNC(=O)CC[C@@H]1NC(=O)[C@@H](CCCNC(=N)N)NC(=O)[C@H](CCCNC(=N)N)NC(=O)[C@@H](CCCNC(=N)N)NC(=O)[C@H](CCCNC(=N)N)NC(=O)[C@H](Cc2ccc3ccccc3c2)NC(=O)[C@@H](Cc2ccccc2)NC1=O)C(N)=O)[C@@H](C)O [Compound 44, (DCNA)-Tle-Chg-Bhv-Ile-Thr-Gln-His-(D-Leu)-Ser-βAla-Lys{[cyclo-(Gln-(D-Arg)-Arg-(D-Arg)-Arg-(2-Nal)-(D-Phe)]}-NH2] (I: X1-[Tle][Chg][Val(3-OH)]ITQH[dL]S[βAla]K-NH2 / II: cyclo([2Nal]R[dR]R[dR]E[dF]); amide I:11-II:6 (inferred); ring closure inferred)
- solubility relative to CNI103 [3]: less soluble

Compound: CC[C@H](C)[C@H](NC(=O)[C@@H](NC(=O)c1cccc(Cl)c1Cl)C(C)(C)C)C(=O)N[C@H](C(=O)N[C@H](C(=O)N[C@H](C(=O)N[C@@H](CCC(N)=O)C(=O)N[C@@H](Cc1c[nH]cn1)C(=O)N[C@H](CC(C)C)C(=O)N[C@@H](CO)C(=O)NCCC(=O)N[C@@H](CCCCNC(=S)Nc1ccc2c(c1)C(=O)OC21c2ccc(O)cc2Oc2cc(O)ccc21)C(N)=O)[C@@H](C)O)[C@@H](C)CC)C(C)(C)C [Peptide 14, Dcb-ZIZIT-Gln-His-leu-Ser-βAla-Lys (FITC)] ({Benzoyl(2,3-Cl2)}-[Tle]I[Tle]ITQH[dL]S[βAla]K(FITC)-NH2; C-terminus assumed)
- aqueous solubility (qualitative) [3]: good aqueous solubility

Compound: CC[C@H](C)[C@H](NC(=O)[C@@H](NC(=O)c1cc(F)c(F)c(F)c1F)C(C)(C)C)C(=O)N[C@H](C(=O)N[C@H](C(=O)N[C@H](C(=O)NCC(=O)N1CCC[C@H]1C(=O)N[C@@H](Cc1c[nH]cn1)C(=O)N[C@@H](CCC(=O)O)C(=O)N[C@@H](CCC(=O)O)C(=O)N[C@@H](Cc1ccc(O)cc1)C(=O)N[C@@H](CCCCNC(=S)Nc1ccc2c(c1)C(=O)OC21c2ccc(O)cc2Oc2cc(O)ccc21)C(N)=O)[C@@H](C)O)[C@@H](C)CC)C(C)(C)C [Peptide 7] (X4-[Tle]I[Tle]ITGPHEEYK(FITC)-NH2)
- Kd [1]: 32 to 189 nM

Compound: CC[C@H](C)[C@H](NC(=O)[C@@H](NC(=O)c1cccc(Cl)c1Cl)C(C)(C)C)C(=O)N[C@H](C(=O)N[C@H](C(=O)N[C@H](C(=O)NCC(=O)N1CCC[C@H]1C(=O)N[C@@H](Cc1c[nH]cn1)C(=O)N[C@@H](CCC(=O)O)C(=O)N[C@@H](CCC(=O)O)C(=O)N[C@@H](Cc1ccc(O)cc1)C(=O)N[C@@H](CCCCNC(=S)Nc1ccc2c(c1)C(=O)OC21c2ccc(O)cc2Oc2cc(O)ccc21)C(N)=O)[C@@H](C)O)[C@@H](C)CC)C(C)(C)C [Peptide 9] ({Benzoyl(2,3-Cl2)}-[Tle]I[Tle]ITGPHEEYK(FITC)-NH2)
- Kd [1]: 32 to 189 nM

Compound: CC[C@H](C)[C@H](NC(=O)[C@@H](NC(=O)c1ccc(C)c(F)c1F)C(C)(C)C)C(=O)N[C@H](C(=O)N[C@H](C(=O)N[C@H](C(=O)NCC(=O)N1CCC[C@H]1C(=O)N[C@@H](Cc1c[nH]cn1)C(=O)N[C@@H](CCC(=O)O)C(=O)N[C@@H](CCC(=O)O)C(=O)N[C@@H](Cc1ccc(O)cc1)C(=O)N[C@@H](CCCCNC(=S)Nc1ccc2c(c1)C(=O)OC21c2ccc(O)cc2Oc2cc(O)ccc21)C(N)=O)[C@@H](C)O)[C@@H](C)CC)C(C)(C)C [Peptide 8] (X5-[Tle]I[Tle]ITGPHEEYK(FITC)-NH2)
- pKd [1]: 6.72 to 7.49

Compound: VIVIT: VIVIT (SEQ ID NO: 2) peptide, a CNBM blocking NFAT (Description: CN binding motif)
- half-life in human serum [4]: ~1 h
- time to complete degradation in human serum [4]: ≤ 6 h

Compound: CC[C@H](C)[C@H](NC(=O)[C@@H](NC(=O)c1cccc(Cl)c1Cl)C(C)(C)C)C(=O)N[C@H](C(=O)N[C@H](C(=O)N[C@H](C(=O)N[C@@H](CCC(N)=O)C(=O)N[C@@H](Cc1c[nH]cn1)C(=O)N[C@H](CC(C)C)C(=O)N[C@@H](Cc1c[nH]cn1)C(=O)NCCC(=O)N[C@@H](CCCCNC(=S)Nc1ccc2c(c1)C(=O)OC21c2ccc(O)cc2Oc2cc(O)ccc21)C(N)=O)[C@@H](C)O)[C@@H](C)CC)C(C)(C)C [Peptide 15, Dcb-ZIZIT-Gln-His-leu-His-βAla-Lys (FITC)] ({Benzoyl(2,3-Cl2)}-[Tle]I[Tle]ITQH[dL]H[βAla]K(FITC)-NH2; C-terminus assumed)
- aqueous solubility (qualitative) [3]: lower solubility
